Source: patent US20110281949A1, “METHODS AND COMPOSITIONS FOR TREATING NEURONAL DAMAGE AND MODULATING TRANSIENT RECEPTOR POTENTIAL CHANNELS” (priority 2008, published 2011)
Entries after “also recorded” stand apart in the source; their conditions may differ. Where two headings read alike, the source gives them in different places.

What was measured:
[1] = tested on: TRPV3; details: literature; cited from earlier work
[2] = molecular target: T1, TRPL channels (Drosophila melanogaster, UniProt P48994); experiment: Whole-cell patch clamp of TRPL channels expressed in S2 cells; details: for Effect on TRPL-mediated current / Effect on current when TRPL channels were not expressed (control): IX 500 μM, XVII 5 mM; for Effect on TRPL-mediated current: XIII 3 mM, XIV 1 mM, XII 2 mM, XV up to 5 mM, X 5 mM, XVI 5 mM, XI 10 mM; for TRPL Activation/Inhibition: TRPL expressed in S2 cells; for Effect on current when TRPL channels were not expressed (control): S2 cells without TRPL expression
T1 sequence (P48994 1-1124): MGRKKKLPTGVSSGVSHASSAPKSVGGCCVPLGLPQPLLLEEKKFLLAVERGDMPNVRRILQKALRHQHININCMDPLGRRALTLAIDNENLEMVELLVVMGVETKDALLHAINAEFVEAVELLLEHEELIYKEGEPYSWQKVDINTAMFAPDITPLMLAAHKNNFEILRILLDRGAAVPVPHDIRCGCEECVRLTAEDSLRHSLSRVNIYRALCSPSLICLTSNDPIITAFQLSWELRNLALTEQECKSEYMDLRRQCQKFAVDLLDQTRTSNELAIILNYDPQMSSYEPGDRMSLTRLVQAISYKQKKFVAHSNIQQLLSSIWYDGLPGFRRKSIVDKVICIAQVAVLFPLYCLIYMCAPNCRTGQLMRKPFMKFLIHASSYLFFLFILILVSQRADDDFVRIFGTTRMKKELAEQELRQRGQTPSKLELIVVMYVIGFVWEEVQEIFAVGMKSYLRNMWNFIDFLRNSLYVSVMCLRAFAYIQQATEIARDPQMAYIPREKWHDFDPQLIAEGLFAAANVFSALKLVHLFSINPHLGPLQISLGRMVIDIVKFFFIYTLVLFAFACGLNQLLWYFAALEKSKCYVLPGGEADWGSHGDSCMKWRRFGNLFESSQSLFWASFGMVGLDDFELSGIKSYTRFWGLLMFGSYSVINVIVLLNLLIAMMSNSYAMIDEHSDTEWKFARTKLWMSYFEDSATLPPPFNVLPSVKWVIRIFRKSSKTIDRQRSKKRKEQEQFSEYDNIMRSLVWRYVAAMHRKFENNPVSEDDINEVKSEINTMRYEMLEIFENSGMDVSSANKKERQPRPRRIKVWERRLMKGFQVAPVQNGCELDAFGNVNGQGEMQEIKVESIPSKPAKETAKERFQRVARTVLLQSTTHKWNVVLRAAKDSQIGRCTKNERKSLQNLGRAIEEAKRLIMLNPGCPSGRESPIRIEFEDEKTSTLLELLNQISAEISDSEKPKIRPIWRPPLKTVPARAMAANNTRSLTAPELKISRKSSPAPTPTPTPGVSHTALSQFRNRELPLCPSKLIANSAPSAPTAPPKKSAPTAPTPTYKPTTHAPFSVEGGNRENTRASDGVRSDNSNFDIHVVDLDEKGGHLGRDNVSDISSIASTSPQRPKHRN
Method: Schneider 2 cells were grown in 25 cm^2 flasks at 25° C. in Schneider medium (Beit HaEmek biological industries, Israel) supplemented with 10% fetal bovine serum (FBS) and 1% pen-strep reagent.
24 hours prior to the experiment, 500 μM CuSO4 was added to the medium of the S2 cells to induce expression of the channels. […] Currents were recorded at room temperature using borosilicate patch pipettes of 5-8 MΩ and an Axopatch 1D (Molecular Devices, Inc.) voltage-clamp amplifier. […] Currents were filtered using the 8-pole low pass Bessel filter of the patch-clamp amplifier at 5 kHz and sampled at 20 kHz. To measure I-V curves with minimal distortions, only cells with low (<10 MΩ) series resistance were used, and series resistance was compensated to ˜80%.
For S2 cells, the extracellular solution contained in mM: 150 NaCl, 5 KCl, 4 MgCl2, 10 TES, 25 proline, 5 alanine and 0.5 EGTA. The intracellular solution contained in mM: 130 K-gluconate, 10 TES, 2 MgCl2, 4 Mg-ATP and 0.4 Na-GTP. […] All solutions were titrated to pH 7.2. Cells were perfused via a BPS-8 valve control system (Scientific Instruments) at a rate of ˜30 chamber volumes per minute. Chemicals were applied via the perfusion system.

[3] = molecular target: T2, native TRPL channels (Drosophila melanogaster, UniProt P48994); experiment: Light-induced current (LIC) in isolated ommatidia of trp^P343 mutant (native TRPL); format: cell-based; details: trp^P343 mutant photoreceptor cells, 500 μM
T2 construct: from tissue; host or cells: dissociated ommatidia of newly emerged white-eyed trpP343 flies
T2 sequence (P48994 1-1124): T1 sequence (P48994 1-1124)
Source text: Series resistance was compensated to ˜80%.
All solutions were titrated to pH 7.15. […] All solutions were titrated to pH 7.2. […] Chemicals were applied via the perfusion system.

[4] = tested on: closed head injury; experiment: Mouse model of closed head injury, Neurological Severity Score (NSS); format: in vivo; details: subcutaneous 0.751 μg/gr body weight 15 min after injury, up to 27 days
Source text: Brain injury is known to disrupt the blood-brain barrier and to induce edema and release auto-destructive factors that produce delayed neuronal damage and neuronal cell death. An experimental model of […] (CHI) in the rat and mouse has been developed and studied mechanistically (Beni-Adani et al 2001; Chen et al 1996). In the present study, CHI was induced under ether anesthesia by allowing a metal rod (333 g) to fall over the exposed skull covering the left hemisphere in the midcornal plane of a 35-45 g Mouse. […] Neurobehavioral evaluations were performed over the next 27 d.
A Neurological Scoring System (NSS) was used to determine ability to perform 10 different behavioral tasks, involving motor ability, balance, and alertness of the mice (Table 4). One point is assigned for failing to perform each task; thus, a normal uninjured mouse scores 0. Injury severity is defined by initial NSS, which is evaluated 1 h post-CHI and referred to as “NSS1.” This value is also a reliable predictor of clinical outcome, with fatal or near-fatal injury corresponding to NSS1 of 7-8; moderate injury to NSS1 of 5-6, and mild injury to NSS1 of <4.

[5] = molecular target: T3, TRPM7 (Mus musculus, UniProt Q923J1); details: 500 μM
T3 sequence (Q923J1 whole entry): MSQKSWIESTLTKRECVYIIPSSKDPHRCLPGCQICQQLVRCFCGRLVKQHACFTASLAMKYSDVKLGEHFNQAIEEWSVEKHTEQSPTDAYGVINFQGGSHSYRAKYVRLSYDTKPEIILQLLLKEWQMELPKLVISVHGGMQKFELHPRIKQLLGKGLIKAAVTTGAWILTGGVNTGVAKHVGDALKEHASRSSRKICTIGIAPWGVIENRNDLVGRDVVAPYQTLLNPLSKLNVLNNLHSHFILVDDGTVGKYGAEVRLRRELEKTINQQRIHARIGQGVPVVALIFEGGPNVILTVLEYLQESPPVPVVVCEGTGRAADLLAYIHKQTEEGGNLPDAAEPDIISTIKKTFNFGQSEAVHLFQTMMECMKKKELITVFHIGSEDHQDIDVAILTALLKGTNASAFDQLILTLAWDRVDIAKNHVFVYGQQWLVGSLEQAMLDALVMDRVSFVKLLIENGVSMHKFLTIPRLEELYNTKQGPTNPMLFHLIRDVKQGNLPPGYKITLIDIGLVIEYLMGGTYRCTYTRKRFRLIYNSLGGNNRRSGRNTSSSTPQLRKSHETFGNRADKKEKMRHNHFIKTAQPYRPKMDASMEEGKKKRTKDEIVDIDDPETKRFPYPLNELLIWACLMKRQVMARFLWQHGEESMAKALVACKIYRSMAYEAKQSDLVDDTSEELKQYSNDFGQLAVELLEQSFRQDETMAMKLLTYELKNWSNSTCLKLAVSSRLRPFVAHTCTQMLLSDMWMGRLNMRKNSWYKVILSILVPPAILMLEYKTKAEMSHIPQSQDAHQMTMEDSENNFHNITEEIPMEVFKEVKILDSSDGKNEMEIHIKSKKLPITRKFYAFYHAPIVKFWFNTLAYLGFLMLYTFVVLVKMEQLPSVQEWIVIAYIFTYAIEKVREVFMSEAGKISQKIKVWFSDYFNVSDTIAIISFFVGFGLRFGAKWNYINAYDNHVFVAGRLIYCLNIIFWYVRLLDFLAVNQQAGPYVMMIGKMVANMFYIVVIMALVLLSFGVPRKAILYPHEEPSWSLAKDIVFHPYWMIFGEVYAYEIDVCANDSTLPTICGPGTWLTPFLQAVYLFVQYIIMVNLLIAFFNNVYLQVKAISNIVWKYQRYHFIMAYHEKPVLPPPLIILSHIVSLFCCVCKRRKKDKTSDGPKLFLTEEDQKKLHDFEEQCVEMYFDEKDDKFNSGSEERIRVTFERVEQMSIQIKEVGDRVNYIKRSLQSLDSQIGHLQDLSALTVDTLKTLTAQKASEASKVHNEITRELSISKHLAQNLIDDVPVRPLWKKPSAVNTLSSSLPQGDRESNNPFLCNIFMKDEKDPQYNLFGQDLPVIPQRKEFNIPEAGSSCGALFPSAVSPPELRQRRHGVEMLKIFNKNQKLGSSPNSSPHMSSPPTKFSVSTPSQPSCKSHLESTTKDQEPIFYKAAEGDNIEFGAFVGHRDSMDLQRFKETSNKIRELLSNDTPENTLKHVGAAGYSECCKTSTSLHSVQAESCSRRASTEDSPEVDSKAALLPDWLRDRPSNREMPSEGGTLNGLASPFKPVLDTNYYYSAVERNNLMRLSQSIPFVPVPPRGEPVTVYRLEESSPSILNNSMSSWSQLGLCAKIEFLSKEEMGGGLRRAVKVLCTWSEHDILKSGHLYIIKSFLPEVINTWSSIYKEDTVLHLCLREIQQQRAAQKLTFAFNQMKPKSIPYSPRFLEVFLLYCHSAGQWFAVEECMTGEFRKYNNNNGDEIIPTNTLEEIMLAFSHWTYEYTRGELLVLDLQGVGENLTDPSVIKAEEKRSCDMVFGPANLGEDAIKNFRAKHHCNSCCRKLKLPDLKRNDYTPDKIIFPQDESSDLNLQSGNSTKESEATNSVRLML

[6] = tested on: TRPM7; details: 500 μM
[7] = molecular target: TRPM8 (Homo sapiens, UniProt Q7Z2W7); details: literature (Vogt-Eisele 2007); cited from earlier work
TRPM8, sequence (Q7Z2W7 whole entry, species assumed): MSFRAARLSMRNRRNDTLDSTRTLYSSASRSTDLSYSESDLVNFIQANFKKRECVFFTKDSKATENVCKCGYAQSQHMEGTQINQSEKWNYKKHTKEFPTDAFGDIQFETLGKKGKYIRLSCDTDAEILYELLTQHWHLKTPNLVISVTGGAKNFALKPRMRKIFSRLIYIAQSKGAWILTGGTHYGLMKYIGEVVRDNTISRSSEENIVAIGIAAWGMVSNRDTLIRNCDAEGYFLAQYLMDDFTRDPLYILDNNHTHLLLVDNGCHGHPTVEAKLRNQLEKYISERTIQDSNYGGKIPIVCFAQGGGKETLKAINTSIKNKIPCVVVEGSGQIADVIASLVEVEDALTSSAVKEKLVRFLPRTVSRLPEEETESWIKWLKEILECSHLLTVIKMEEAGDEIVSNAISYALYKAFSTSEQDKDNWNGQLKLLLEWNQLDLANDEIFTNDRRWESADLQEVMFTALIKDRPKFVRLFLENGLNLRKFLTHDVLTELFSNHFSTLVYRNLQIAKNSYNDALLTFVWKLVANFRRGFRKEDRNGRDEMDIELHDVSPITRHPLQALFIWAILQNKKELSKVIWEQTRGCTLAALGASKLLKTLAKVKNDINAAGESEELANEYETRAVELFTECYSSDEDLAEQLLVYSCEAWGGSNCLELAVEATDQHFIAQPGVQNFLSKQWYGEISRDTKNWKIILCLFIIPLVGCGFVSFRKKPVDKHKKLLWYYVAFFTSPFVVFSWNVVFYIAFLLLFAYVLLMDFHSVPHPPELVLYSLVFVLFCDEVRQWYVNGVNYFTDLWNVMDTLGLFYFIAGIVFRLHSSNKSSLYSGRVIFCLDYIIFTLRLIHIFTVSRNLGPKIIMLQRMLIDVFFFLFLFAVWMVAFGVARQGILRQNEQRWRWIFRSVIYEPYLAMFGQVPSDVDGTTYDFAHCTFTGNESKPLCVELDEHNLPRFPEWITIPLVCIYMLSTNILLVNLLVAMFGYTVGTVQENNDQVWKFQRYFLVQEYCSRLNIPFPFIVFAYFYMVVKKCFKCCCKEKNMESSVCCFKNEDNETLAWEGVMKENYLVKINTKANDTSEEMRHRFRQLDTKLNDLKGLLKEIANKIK

[8] = molecular target: T3, TRPM7; experiment: cell-based; details: read-out: Inhibition of total presynaptic strength (S)
[9] = molecular target: T4, TRP (Drosophila melanogaster, UniProt P19334); experiment: Light-induced current (LIC) in photoreceptor cells of wild-type flies (native TRP)
T4 sequence (P19334 1-1275): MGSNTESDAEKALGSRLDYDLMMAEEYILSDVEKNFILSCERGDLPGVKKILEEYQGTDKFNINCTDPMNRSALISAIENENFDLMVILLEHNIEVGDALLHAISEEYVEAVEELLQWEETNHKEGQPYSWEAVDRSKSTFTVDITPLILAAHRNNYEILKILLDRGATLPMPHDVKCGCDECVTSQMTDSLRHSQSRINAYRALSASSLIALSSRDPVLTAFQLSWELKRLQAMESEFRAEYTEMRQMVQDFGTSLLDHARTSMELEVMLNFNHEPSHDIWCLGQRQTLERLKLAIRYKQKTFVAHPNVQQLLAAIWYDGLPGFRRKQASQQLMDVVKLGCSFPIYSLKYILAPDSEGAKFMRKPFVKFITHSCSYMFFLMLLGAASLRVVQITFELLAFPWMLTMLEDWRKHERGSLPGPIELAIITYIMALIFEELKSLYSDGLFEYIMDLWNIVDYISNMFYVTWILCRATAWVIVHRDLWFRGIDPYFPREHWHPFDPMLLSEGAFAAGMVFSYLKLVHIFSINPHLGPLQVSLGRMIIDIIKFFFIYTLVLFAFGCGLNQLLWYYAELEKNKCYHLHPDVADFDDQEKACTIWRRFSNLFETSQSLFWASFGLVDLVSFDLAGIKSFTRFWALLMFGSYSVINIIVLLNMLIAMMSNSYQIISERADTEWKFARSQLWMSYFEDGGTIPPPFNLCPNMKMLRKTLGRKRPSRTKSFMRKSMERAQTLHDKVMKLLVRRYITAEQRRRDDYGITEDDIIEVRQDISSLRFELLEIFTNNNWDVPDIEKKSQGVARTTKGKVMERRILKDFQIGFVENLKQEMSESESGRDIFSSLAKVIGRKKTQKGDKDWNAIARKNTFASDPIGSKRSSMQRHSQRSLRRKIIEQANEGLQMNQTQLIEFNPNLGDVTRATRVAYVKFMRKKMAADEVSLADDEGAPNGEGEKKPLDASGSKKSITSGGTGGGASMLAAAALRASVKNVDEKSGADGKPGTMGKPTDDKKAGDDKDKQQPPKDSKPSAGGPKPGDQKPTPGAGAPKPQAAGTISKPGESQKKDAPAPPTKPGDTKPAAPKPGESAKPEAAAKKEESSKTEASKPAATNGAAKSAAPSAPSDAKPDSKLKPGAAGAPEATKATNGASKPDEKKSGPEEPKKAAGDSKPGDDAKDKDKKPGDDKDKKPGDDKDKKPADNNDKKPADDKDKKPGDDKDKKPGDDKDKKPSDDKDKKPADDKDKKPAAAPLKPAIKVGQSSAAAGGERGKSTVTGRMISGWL
Method: Drosophila white-eyed flies of the following strains were used: wt and trp^P343. Flies were raised at 24° C. in a 12 h light/dark cycle.
A tungsten trans-illumination light (12 V, 100 W halogen lamp, in conjunction with a Schott OG 590 orange edge filter and a KG3 heat filter) provided illumination for stimulation of the photoreceptors in all experiments. Stimulating light was applied via a condenser lens (Carl Zeiss Microlmaging, Inc.) and was attenuated by neutral density filters. The maximal luminous intensity of the unattenuated orange light at the level of the ommatidia was 3.2 mW/cm^2.
Dissociated Drosophila ommatidia were prepared from newly emerged flies (<1 h after eclosion) that were kept in the dark 12-18 h before the experiment. Whole-cell, patch-clamp recordings were performed as described in Peretz et al, 1994. Currents were recorded at 21° C. using borosilicate patch pipettes of 8-10 MO and an Axopatch 200B™ (Molecular Devices, Inc.) voltage-clamp amplifier. Voltage-clamp pulses were generated and data captured using a Digidata 1200™ interfaced to a computer running pClamp 8.0 software (Axon Instruments, Inc.). Currents were filtered using the 8-pole low pass Bessel filter of the patch-clamp amplifier at 5 kHz and sampled at 10 kHz. Series resistance was compensated to ˜80%. […]

[10] = molecular target: T3, TRPM7; experiment: Whole-cell patch clamp of TRPM7 expressed in HEK cells; format: cell-based, mammalian; parameters: expressed in transfected cells; host or cells: HEK / HEK293 cells, transient, TransIT reagent (Mirus); details: for Effect on TRPM7-mediated current: HEK cells expressing TRPM7, IX 500 μM
Method: Human embryonic kidney (HEK) cells were grown in 25 cm^2 flasks at 37° C. in Dulbecco's Modified Eagle's Medium (DMEM) (Beit Haemek biological industries, Israel) supplemented with 10% FBS, 1% pen-strep and 1% L-Glutamine. TRPM7 (GenBank accession number NM—021450; SEQ ID No: 19; provided by David Clapham) and pIRES-eGFP were transiently expressed using TransIT™ reagent (Mirus).
Cells were seeded on polylysine-coated plates at a confluence of 25%, 24-72 hours prior to the experiment. […] Whole-cell, patch-clamp recordings were performed as described (Parnas et al, 2007). Currents were recorded at room temperature using borosilicate patch pipettes of 5-8 MΩ and an Axopatch 1D (Molecular Devices, Inc.) voltage-clamp amplifier. Voltage-clamp pulses were generated and data captured using a Digidata 1322A interfaced to a computer running the pClamp 9.2 software (Axon Instruments, Inc.). Currents were filtered using the 8-pole low pass Bessel filter of the patch-clamp amplifier at 5 kHz and sampled at 20 kHz. To measure I-V curves with minimal distortions, only cells with low (<10 MΩ) series resistance were used, and series resistance was compensated to ˜80%.
For HEK cells, the extracellular solution contained in mM: 140 NaCl, 2.8 KCl, 2 CaCl2, 1 MgCl2, HEPES and 10 glucose. The intracellular solution contained in mM: 140 Cs-Aspartate, 8 NaCl, 10 EGTA and 10 HEPES. All solutions were titrated to pH 7.2. Cells were perfused via a BPS-8 valve control system (Scientific Instruments) at a rate of ˜30 chamber volumes per minute. Chemicals were applied via the perfusion system.

[11] = molecular target: TRPA1 (Homo sapiens, UniProt O75762); details: irreversible, by covalent modification; cited from earlier work
TRPA1, sequence (O75762 whole entry, species assumed): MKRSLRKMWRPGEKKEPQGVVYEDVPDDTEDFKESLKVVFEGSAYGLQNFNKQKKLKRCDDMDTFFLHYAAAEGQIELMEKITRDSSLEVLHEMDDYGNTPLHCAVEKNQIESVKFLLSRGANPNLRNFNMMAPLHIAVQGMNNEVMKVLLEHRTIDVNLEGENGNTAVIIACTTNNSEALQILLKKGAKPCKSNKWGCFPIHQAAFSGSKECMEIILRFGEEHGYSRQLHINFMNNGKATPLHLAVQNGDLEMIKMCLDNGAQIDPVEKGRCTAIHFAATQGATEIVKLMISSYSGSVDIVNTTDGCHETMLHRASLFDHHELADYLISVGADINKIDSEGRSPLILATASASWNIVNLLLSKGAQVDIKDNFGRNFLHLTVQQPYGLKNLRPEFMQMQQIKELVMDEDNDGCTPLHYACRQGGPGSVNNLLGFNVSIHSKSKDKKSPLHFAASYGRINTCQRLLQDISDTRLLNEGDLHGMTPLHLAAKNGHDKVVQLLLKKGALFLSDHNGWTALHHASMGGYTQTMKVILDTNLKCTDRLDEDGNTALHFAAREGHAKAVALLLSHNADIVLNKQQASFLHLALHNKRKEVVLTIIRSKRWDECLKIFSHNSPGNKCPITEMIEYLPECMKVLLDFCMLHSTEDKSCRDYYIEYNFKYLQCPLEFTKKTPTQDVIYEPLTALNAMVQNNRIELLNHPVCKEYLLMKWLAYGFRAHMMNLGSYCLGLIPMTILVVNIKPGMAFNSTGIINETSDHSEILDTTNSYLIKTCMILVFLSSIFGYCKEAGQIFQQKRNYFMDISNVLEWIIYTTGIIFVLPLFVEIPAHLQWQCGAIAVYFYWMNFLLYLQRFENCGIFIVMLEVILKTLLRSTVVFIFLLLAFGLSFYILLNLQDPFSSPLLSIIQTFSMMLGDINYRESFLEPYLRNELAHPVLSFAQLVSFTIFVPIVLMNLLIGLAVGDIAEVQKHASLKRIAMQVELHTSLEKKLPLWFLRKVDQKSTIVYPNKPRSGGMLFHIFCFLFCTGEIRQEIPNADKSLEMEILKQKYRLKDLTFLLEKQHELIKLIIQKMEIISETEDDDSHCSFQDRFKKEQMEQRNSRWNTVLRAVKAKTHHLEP

Structure (SMILES) | TRPV3 activation [1] | Effect on TRPL-mediated current ([2]; S2 cells) | TRPL Activation/Inhibition [2] | Reversibility of effect on TRPL channel ([2]; S2 cells) | Effect on TRPM7-mediated current [10] | also measured
Cc1ccc(C(C)C)c(O)c1 [Compound XIV, 2-Isopropyl-5-methylphenol] | activate TRPV3 | inhibited TRPL; also recorded: large decrease in the TRPL-dependent current | Inhibition | – | – | –
O=C(O)/C=C/c1ccc(O)c(O)c1 [Compound XV, 3,4-Dihydroxycinnamic acid] | – | did not block TRPL | No effect | – | – | –
Cc1ccc(C(C)C)cc1O [Compound IX, 5-Isopropyl-2-methylphenol] | believed to activate TRPV3 | Large suppression of the current; also recorded: large decrease in the TRPL-dependent current | Inhibition | reversibly blocked | Large and dose-dependent suppression of the current; also recorded: dramatic decrease in the TRPM7 mediated current | Effect on light-induced current (LIC) amplitude, native TRPL [3]: dramatically reduced LIC amplitude; also recorded: inhibits the native TRPL channels; NSS recovery after closed head injury vs saline [4]: NSS scores dropped significantly more; also recorded: significant protective effect from brain damage; Effect on vesicle release in TRPM7-GFP-expressing neurons ([5]; 30 APs@1 Hz): significantly decreased vesicle release; ΔF median of boutons after compound application ([5]; TRPM7-GFP-expressing neurons, 73 before): 75 arbitrary units; Number of FM-detectable boutons after compound application ([5]; TRPM7-GFP-expressing neurons, 578 before): 318; ΔF median of boutons after compound application ([6]; control neurons, 88 before): 87 arbitrary units; Number of FM-detectable boutons after compound application ([6]; control neurons, 764 before): 845; Effect on presynaptic activity in control neurons ([6]; neurons lacking TRPM7-GFP): did not affect presynaptic activity; Effect on vesicle release in control neurons ([6]; neurons lacking TRPM7-GFP): did not alter vesicle release; Effect on TRPM8 [7]: only a minimal effect on TRPM8; inhibition at 500 µM [8]: 47 ± 3%; Effect on current when TRPL channels were not expressed (control) [2]: no effect; Effect on light-induced current (LIC) of WT flies, native TRP [9]: inhibited LIC of WT flies; Reversibility of TRPM7 block ([10]; HEK cells): reversibly blocked activity; Effect in mock-transfected HEK293 cells (TRPM7 not expressed) ([10]; control): no effect was observed
CC1(C)C2CCC1(C)C(O)C2 [Compound XVII, endo-(1R)-1,7,7-Trimethylbicyclo[2.2.1]heptan-2-ol] | believed to activate TRPV3 | activated the TRPL channel; also recorded: activated the TRPL-mediated current | Activation | completely reversible rapid activation | inhibit TRPM7 | Effect on current when TRPL channels were not expressed (control) [2]: no effect
CC(C)[C@@H]1CC[C@@H](C)C[C@H]1O [Compound X, 2-Isopropyl-5-methylcyclohexanol] | – | large decrease in the TRPL-dependent current | Inhibition | – | inhibit TRPM7 | IC50 [2]: 1810 ± 130 µM
CC12CCC(CC1=O)C2(C)C (centres unmarked) [Compound XI, 1,7,7-Trimethylbicyclo[2.2.1]heptan-2-one] | believed to activate TRPV3 | activated the TRPL channel | Activation | – | – | –
O=C/C=C/c1ccccc1 [Compound XII, trans-3-Phenyl-2-propenal] | – | inhibited TRPL activity; also recorded: decreased the TRPL-mediated current | Inhibition | reversible | inhibit TRPM7 | TRPA1 activation [11]: activated; IC50 ([2]; read-out: IC50 of TRPL inhibition, S2 cells, whole-cell patch clamp): 1600 ± 300 µM
C=CCc1ccc(O)c(OC)c1 [Compound XIII, 2-Methoxy-4-(2-propenyl)phenol] | activate TRPV3 | inhibited TRPL; also recorded: large decrease in the TRPL-dependent current | Inhibition | – | – | –
C=C(C)[C@@H]1CC=C(C)C(O)C1 (stereo partly drawn) [Compound XVI, (5R)-5-Isopropenyl-2-methyl-2-cyclohexenol] | – | large decrease in the TRPL-dependent current | Inhibition | – | – | IC50 [2]: 4220 ± 400 µM
